Consider one molecule from article PMC11431997, “Baicalin Inhibits FIPV Infection In Vitro by Modulating the PI3K-AKT Pathway and Apoptosis Pathway” (International Journal of Molecular Sciences, 2024).

In data set [1] the test system is FIPV (BJ-01). The data set can be described thus: Inhibitory effects of compounds on FIPV-infected cells (compound and FIPV added simultaneously, CCK-8). The class given is cell-based, feline infectious peritonitis virus. How it is done: According to previous methods, CRFK cells were seeded in 96-well cell culture plates at a density of 1 × 10^4 cells/well and cultured at 37 °C in 5% CO2 until the cell density was greater than 90%. After the cells were washed twice with PBS, 50 μL of test compound and 50 μL of FIPV were added to each well simultaneously (at the same time, a cell control group with only 100 μL of MM and a viral control group with only 100 μL of FIPV were added). There were 3 replicate wells for each compound and group. After 72 h of incubation at 37 °C and 5% CO2, the liquid in the plate was discarded, and the cells were washed twice with PBS. The MIR of the compounds to the virus was calculated according to the instructions of the Cell Counting Kit-8. Afterwards, the compounds with MIR > 50% were diluted to 8 concentrations with MM, and the above process was repeated. Then, the EC50 values of the compounds were calculated with GraphPad Prism 10.

The subject of data set [2] is FIPV (BJ-01). Briefly: Direct inactivation of FIPV (compound pre-mixed with virus, CCK-8). It counts as cell-based, feline infectious peritonitis virus. The method, then: According to previous methods, CRFK cells were seeded in 96-well cell culture plates at a density of 1 × 10^4 cells/well and cultured at 37 °C in 5% CO2 until the cell density was greater than 90%. Then, the medium was discarded, and the cells were washed twice with PBS. The compound was mixed with FIPV in the ratio of 1:1 and incubated at 37 °C and 5% CO2 for 30, 60, 90, 120, and 150 min, respectively; then, the mixture of different incubation durations were added into 96-well cell culture plates at 100 μL/well and incubated at 37 °C and 5% CO2, respectively (at the same time, a cell control group with only 100 μL of MM and a viral control group with only 100 μL of FIPV were added). There were 3 replicate wells for each compound and group. After the CPE of the viral control group reached more than 80%, the liquid in the culture plate was removed and washed twice with PBS. Afterwards, the IR of the compounds against the virus was computed according to the directions of the Cell Counting Kit-8.

Another data set deals with FIPV-infected CRFK cells. The data set can be described thus: FIPV-induced apoptosis, Annexin V-FITC/PI assay. It counts as cell-based, feline. To be noted: baicalin-treated FIPV-infected CRFK cells, 24 h after infection, p < 0.05. How it is done: CRFK cells were seeded in 96-well cell culture plates at a density of 1 × 10^4 cells/well and cultured at 37 °C in 5% CO2 until the cell density was greater than 90%. After the cells were washed twice with PBS, 50 μL of test compound and 50 μL of FIPV were added to each well simultaneously (at the same time, a cell control group with only 100 μL of MM and a viral control group with only 100 μL of FIPV were added). Three replicate wells were used for each group. […] Then, apoptosis was detected according to the instructions of the Annexin V-FITC/PI Apoptosis Detection Kit (MCE, USA). The results were observed using a fluorescence inverted microscope, and the fluorescence intensity was analyzed using ImageJ.

Data set [3] concerns FIPV (BJ-01). The data set can be described thus: Cellular viral load by qPCR (FIPV-N gene). The class given is cell-based, feline infectious peritonitis virus. The method, then: CRFK cells were seeded in a 96-well cell culture plate at a density of 1 × 10^4 cells/well and cultured at 37 °C in 5% CO2 until the cell density was greater than 90%. After the cells were washed twice with PBS, 50 μL of compound and 50 μL of FIPV were added to each well simultaneously, and the plates were incubated at 37 °C and 5% CO2 for 12, 24, 36, 48, 60, and 72 h (at the same time, a cell control group with only 100 μL of MM and a viral control group with only 100 μL of FIPV were added). There were 3 replicate wells for each group and incubation time. After the liquid in the plate was discarded, the cells were washed twice with PBS. Then, the cells were digested by adding tryptic digest at 30 μL/well, the cell suspension was collected, and the cell precipitates were collected by centrifugation at 3000 rpm for 1 min. Total cellular RNA was extracted after the cell precipitates were resuspended in PBS according to the instructions of the FastPure Viral DNA/RNA Mini Kit Pro (Vazyme, Nanjing, China). Then, reverse transcription was performed using HiScript IV RT SuperMix for qPCR (+gDNA wiper) (Vazyme, Nanjing, China). The sequences of the primers used for the detection of the FIPV-N (GenBank: MK840958.1) were […] (F: 5′→3′) and […] (R: 5′→3′). The sequences of the primers used for the detection of the GAPDH genes were […] (F: 5′→3′) and […] (R: 5′→3′). […]

Data set [4] concerns PI3K-AKT signaling pathway and apoptosis pathway. The data set can be described thus: 4D-LFQ proteomics of FIPV-infected CRFK cells. It counts as cell-based, feline. The settings on record: 48 h. The source says:
According to the methods of Section 4.6, post-infection cells were collected at the appropriate time of infection and then quickly frozen in liquid nitrogen. The cell control group was named the control group (Group C), the virus control group was named the FIPV group (Group F), the compound treatment group was named the treatment group (Group T), and each group contained three replicate samples. Afterwards, they were sent to Shanghai Applied Protein Technology Co., Ltd. (Shanghai, China) for 4D-LFQ proteomics analysis.

Where [5] appears, read: treatment/FIPV comparison group.

Converted amounts (≈) assume the structure as drawn. “And” between values parts separate entries of the source, which are not always exact repeats. Identical values can stand only once. Some results are limits rather than exact numbers.

On to `O=C(O)[C@H]1O[C@@H](Oc2cc3oc(-c4ccccc4)cc(=O)c3c(O)c2O)[C@H](O)[C@@H](O)[C@@H]1O` [Baicalin], for which the response with FIPV (BJ-01) [1] (Alphacoronavirus 1, FIPV in CRFK cells, gradient dilution, 72 h, CCK-8) was half-maximal at 20.8 µg/mL (≈ 46.6 µM) (EC50). Further, the “SI (CC50/EC50)” value in the data set on FIPV (BJ-01) [1] (FIPV, CRFK cells) is > 3 and 5.5. The “inhibition rate on FIPV (direct inactivation)” value with FIPV (BJ-01) [2] (150 min of co-culture of baicalin with FIPV) is on record as around 100%. For the same molecule, the “inhibition rate on FIPV (direct inactivation)” value in the data set on FIPV (BJ-01) [2] (baicalin co-cultured with FIPV 30-150 min before addition to CRFK cells, all times) is “more than 50%”. For the same molecule, the “fluorescence intensity per unit area of cells (early apoptosis, green fluorescence)” value with FIPV-infected CRFK cells is “significantly lower”. Besides, the “FIPV-N gene copy number” value in the data set on FIPV (BJ-01) [3] (48 h compared with 36 h of baicalin treatment, p < 0.05) is given as “significantly decreased”. Also, the “time of peak FIPV-N gene copy number after baicalin treatment” value in the data set with FIPV (BJ-01) [3] (FIPV-infected CRFK cells, qPCR at 12-72 h) was found to be 36 h. Besides, in data set [4] (treatment group vs FIPV group), the “AKT2 level (4D-LFQ)” value is on record as “significantly upregulated”, the “AKT3 level (4D-LFQ)” value is reported as “tended to increase”, the “EGFR level (4D-LFQ)” value is “significantly upregulated” and the “PIK3CA level (4D-LFQ)” value is recorded as “significantly upregulated”. In addition, in data set [4] (setting [5]), the “BAX level (4D-LFQ)” value is on record as “downregulated but not significant”, the “BCL2L level (4D-LFQ)” value is “upregulated but not significant” and the “CASP9 level (4D-LFQ)” value is “significantly downregulated”.
